Data on 4 molecules can be found in US11008603B2, “Method and kit for detecting pathogenic microorganism” (JAPAN SCIENCE AND TECHNOLOGY AGENCY, priority 2016, dated 2021).

The nature of series [1]: Test Example 1: influence of pH value of hydrophilic solvent on fluorescence detection of 4-MU in droplets covered with FC40. In kind it is physicochemical. The settings on record: 50 μM 4-MU, 33 mM DEA-HCl, 4 mM CaCl2; buffer pH set higher than pKa (pH 8 or more) within pH 6.5 to 9.0; FC40 cover. The text has this: According to the following procedure, the influence of the pH value of a hydrophilic solvent on detection sensitivity was studied.
First, according to a report by Kim et al. (“Quantifying genetically inserted fluorescent protein in single iPS cells to monitor Nanog expression using electroactive microchamber arrays”, Lab on Chip, 2014, Issue 4, Vol. 14, and p. 730-736), a droplet array device (DAD) was produced. A cover glass (24 mm×32 mm) was washed and dried. The cover glass was then spin-coated with an amorphous fluorine resin (CYTOP 816AP, AGC Inc.), and fired at 180° C. for 1 hour. The cover glass coated with the amorphous fluorine resin was spin-coated with a positive type photoresist (AZ-4903, AZ Electronic Materials), fired at 55° C. for 3 minutes, and then further fired at 110° C. for 5 minutes. The cover glass was subjected to photolithography by use of a photomask having holes each having a diameter of 3 μm at intervals of 5 μm. The cover glass was dry-etched with oxygen plasma, and then washed to obtain as the DAD. […]
With a CMOS camera (Neo sCMOS, Andor) connected to a fluorescence microscope (IX8, OLYMPUS), a fluorescent image of each of the droplets was photographed to measure fluorescence intensity. […] The fluorescent image was analyzed with an imaging analysis software (Meta-Morph, Molecular Devices), to calculate fluorescence intensity.

Series [2] in a line: Test Example 2: influence of buffering substance (DEA) concentration on fluorescence intensity of 4-MU in droplets covered with FC40 over time. The following applies: 4 mM CaCl2, pH 6.5, 50 μM 4-MU. The format is physicochemical. The method, then: According to the following procedure, the influence of the concentration of a buffering substance of a hydrophilic solvent on detection sensitivity was studied. 4-MU was dissolved in a concentration of 50 μM in a buffer solution (4 mM CaCl2, pH 6.5) having a DEA concentration adjusted to 25 mM to 1M. Into the array, 30 μL of the buffer solution in which 4-MU was dissolved was introduced, to fill each of the wells with the buffer solution (see FIG. 1A). Then, into the array, 200 μL of a hydrophobic solvent (FC40) was introduced, to form a droplet of the hydrophilic solvent covered with the hydrophobic solvent in each of the wells. Time-lapse photographing was performed under a fluorescence microscope to measure fluorescence intensity of each of the droplets.

For series [3] the following is noted: cited from earlier work.

Take `Cc1cc(=O)oc2cc(O)ccc12` [4MU, 4-methylumbelliferone]: the “fluorescence detection sensitivity in droplet (distribution/leakage to FC40)” value in series [1] is reported as “detected with higher sensitivity”. In addition, the “fluorescence intensity over time” value was “decrease in the fluorescence intensity was observed” in series [2] (DEA 25 mM) and “maintained” in series [2] (DEA 50 mM, for 10 minutes). Also, the “decrease in the fluorescence intensity over time” value in series [2] (DEA 100 mM, for 30 minutes) is “significantly suppressed”; in series [2] (DEA 500 mM, for 30 minutes) it was “significantly suppressed”; in series [2] (DEA 1 M, after subtraction of fading due to exposure), “not observed”. In series [3], the “acid dissociation constant (pKa)” value was 7.79.
With `O=c1ccc2nc3ccc(O)cc3oc-2c1` [resorufin], the “acid dissociation constant (pKa)” value in series [3] is 6.0.
Consider `CCN(CC)c1ccc2c(-c3ccccc3C(=O)O)c3ccc(=[N+](CC)CC)cc-3oc2c1.[Cl-]` [rhodamine], for which the “acid dissociation constant (pKa)” value in series [3] is on record as 6.0.
As for fluorescein, the “acid dissociation constant (pKa)” value in series [3] was 6.4.
